In patent publication US5087702A, “Microbial transformation process for producing an antihypertensive product” (Merck & Co., Inc., priority 1991, dated 1992):

Target: T1, Angiotensin II (A II) receptor (Oryctolagus cuniculus, UniProt P34976)
T1 construct: membrane preparation derived from rabbit aortae; tissue Pel-Freeze Biologicals; host or cells: frozen rabbit aortae, membrane preparation
T1 sequence (P34976 1-359): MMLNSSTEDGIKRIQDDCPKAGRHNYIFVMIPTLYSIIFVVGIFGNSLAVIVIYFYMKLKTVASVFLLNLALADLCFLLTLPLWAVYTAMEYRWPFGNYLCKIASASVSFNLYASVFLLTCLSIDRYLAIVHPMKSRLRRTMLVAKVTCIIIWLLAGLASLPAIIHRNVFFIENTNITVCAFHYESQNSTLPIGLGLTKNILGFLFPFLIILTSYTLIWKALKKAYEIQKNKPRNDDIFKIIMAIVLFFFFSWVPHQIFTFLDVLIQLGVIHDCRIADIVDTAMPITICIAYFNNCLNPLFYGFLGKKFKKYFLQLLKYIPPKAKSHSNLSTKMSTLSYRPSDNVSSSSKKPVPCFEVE
Assay: Receptor binding assay using rabbit aortae membrane preparation (displacement of 125I-Sar1Ile8-angiotensin II; the "IC50" assay)
Conditions: membrane preparation derived from rabbit aortae; 37° C., 90 minutes; read-out: inhibitory concentration (IC50) giving 50% displacement of the total specifically bound 125I-Sar1 Ile8-angiotensin II
Description: This assay is also referred to herein as the "IC50 " assay.
RECEPTOR BINDING ASSAY USING RABBIT AORTAE MEMBRANE PREPARATION
Three frozen rabbit aortae (obtained from Pel-Freeze Biologicals) were suspended in 5 mM Tris-0.25M Sucrose, pH 7.4 buffer (50 ml) homogenized, and then centifuged. The mixture was filtered through a cheesecloth and the supernatant was centrifuged for 30 minutes at 20,000 rpm at 4° C. The pellet thus obtained was resuspended in 30 ml of 50 mM Tris-5 mM MgCl2 buffer containing 0.2% Bovine Serum Albumin and 0.2 mg/ml Bacitration and the suspension was used for 100 assay tubes. Samples tested for screening were done in duplicate. To the membrane preparation (0.25 ml) there was added ^125 I-Sar^1 Ile^8 -angiotensin II [obtained from New England Nuclear] (10 ul; 20,000 cpm) with or without the test sample and the mixture was incubated at 37° C. for 90 minutes. The mixture was then diluted with ice-cold 50 mM Tris-0.9% NaCl, pH 7.4 (4 ml) and filtered through a glass fiber filter (GF/B Whatman 2.4" diameter). The filter was soaked in scintillation cocktail (10 ml) and counted for radioactivity using Packard 2660 Tricarb liquid scintillation counter. […]

IC50: < 50 µM
Structure (SMILES): CCCc1nc2c(C)ccnc2n1Cc1ccc(-c2ccccc2-c2nnnn2CC2=CC(O)C(O)C(O)C2=O)cc1 (stereo not shown) [Compound I]
